Source: article PMC7660650, “Chemical Starting Matter for HNF4α Ligand Discovery and Chemogenomics” (International Journal of Molecular Sciences, 2020)
Values joined by “and” are separate entries in the source; they are usually repeats but may differ in a detail not shown here. Equal values may be shown once.

The compounds below were run against T1, Gal4-HNF4α (human HNF4α LBD) (Homo sapiens, UniProt P41235) (assay: Hybrid Gal4-HNF4α reporter gene assay in transiently transfected HEK293T cells). Conditions: Table S1, primary screening, 50 µM.
T1 construct: uniprot entry: P41235-1, residues 142-377; expressed in transfected cells; host or cells: HEK293T
T1 sequence (P41235 142-377): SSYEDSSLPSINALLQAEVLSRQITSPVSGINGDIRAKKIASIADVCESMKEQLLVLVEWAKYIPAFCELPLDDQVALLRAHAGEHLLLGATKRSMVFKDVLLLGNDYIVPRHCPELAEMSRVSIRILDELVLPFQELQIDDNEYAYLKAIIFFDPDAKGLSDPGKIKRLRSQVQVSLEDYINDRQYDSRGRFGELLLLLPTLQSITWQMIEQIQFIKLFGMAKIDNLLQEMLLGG
Assay type: cell-based

SMILES | HNF4a-screening_activity_(mean_of_n=2)
O=C(O)c1cnccn1 [Prestw-Frag-1495, OC(=O)c1cnccn1] | 1.013
O=C(O)CC[C@H](NC(=O)c1ccccc1)C(=O)O [Prestw-Frag-1499, OC(=O)CC[C@H](NC(=O)c1ccccc1)C(O)=O] | 1.11
COc1cc(C)cc(C)c1C [Prestw-Frag-1506, COc1cc(C)cc(C)c1C] | 1.143
Cc1nccn1CCO [Prestw-Frag-1517, Cc1nccn1CCO] | 0.9796 and 1.002
CNCC(c1ccc(OC)cc1)C1(O)CCCCC1 (stereo not shown) [Prestw-Frag-1523, CNCC(c1ccc(OC)cc1)C1(O)CCCCC1] | 1.103 and 1.105
CN(C)C(=O)Oc1ccccc1 [Prestw-Frag-1540, CN(C)C(=O)Oc1ccccc1] | 1.182
Nc1ccc([N+](=O)[O-])cc1Cl [Prestw-Frag-1543, Nc1ccc(cc1Cl)[N+]([O-])=O] | 0.9851
COC(=O)C1=C(C)NC(C)=C(C(=O)OC)C1 [Prestw-Frag-1547, COC(=O)C1=C(C)NC(C)=C(C1)C(=O)OC] | 0.9986
CN1Cc2c(N)cccc2C(c2ccccc2)C1 (stereo not shown) [Prestw-Frag-1552, CN1CC(c2ccccc2)c2cccc(N)c2C1] | 1.162
CN1CCc2cccc(N)c2C1 [Prestw-Frag-1553, CN1CCc2cccc(N)c2C1] | 1.039 and 1.009
COc1ccc(N2CCN(c3ccc(N)cc3)CC2)cc1 [Prestw-Frag-1557, COc1ccc(cc1)N1CCN(CC1)c1ccc(N)cc1] | 1.098
O=c1[nH]nc(Cc2ccc(Cl)cc2)c2ccccc12 [Prestw-Frag-1559, Clc1ccc(Cc2n[nH]c(=O)c3ccccc23)cc1] | 1.206 and 0.9531
O=c1[nH]ncc2ccccc12 [Prestw-Frag-1560, O=c1[nH]ncc2ccccc12] | 1.119
O=c1[nH]nc(Cc2ccccc2)c2ccccc12 [Prestw-Frag-1561, O=c1[nH]nc(Cc2ccccc2)c2ccccc12] | 1.103
Cc1cc(C(C)(C)C)cc(C)c1CC1=NCCN1 [Prestw-Frag-1575, Cc1cc(cc(C)c1CC1=NCCN1)C(C)(C)C] | 1.056
O=c1[nH]c2ccccc2n1C1CCNCC1 [Prestw-Frag-1587, O=c1[nH]c2ccccc2n1C1CCNCC1] | 1.041
OCCOc1cccc2[nH]ccc12 [Prestw-Frag-1595, OCCOc1cccc2[nH]ccc12] | 0.8145 and 1.05
CCN1CCCC1CNC(=O)c1ccc(N)cc1 (stereo not shown) [Prestw-Frag-1632, CCN1CCCC1CNC(=O)c1ccc(N)cc1] | 0.8541
NCCc1c[nH]c2ccc(O)cc12 [Prestw-Frag-1643, NCCc1c[nH]c2ccc(O)cc12] | 1.007
Oc1ccc2[nH]ccc2c1 [Prestw-Frag-1645, Oc1ccc2[nH]ccc2c1] | 1.016
Cc1cc(N)no1 [Prestw-Frag-1647, Cc1cc(N)no1] | 0.9773
Nc1ccnn1-c1ccccc1 [Prestw-Frag-1648, Nc1ccnn1-c1ccccc1] | 1.023
OC(c1ccccc1)(c1ccccc1)C1CCNCC1 [Prestw-Frag-1654, OC(C1CCNCC1)(c1ccccc1)c1ccccc1] | 1.142 and 1.152
NC(=O)CN1C(=O)c2ccccc2C1=O [Prestw-Frag-1661, NC(=O)CN1C(=O)c2ccccc2C1=O] | 1.028
Cc1ccc(S(=O)(=O)NC(N)=O)cc1 [Prestw-Frag-1667, Cc1ccc(cc1)S(=O)(=O)NC(N)=O] | 1.077

SMILES | HNF4a-screening_activity_(mean_of_n=2)
O=c1[nH]nc2ccccn12 [Prestw-Frag-1673, O=c1[nH]nc2ccccn12] | 1.045
O=C(O)C(CO)c1ccccc1 (stereo not shown) [Prestw-Frag-1686, OCC(C(O)=O)c1ccccc1] | 1.109
CC(N)COc1ccccc1 (stereo not shown) [Prestw-Frag-1691, CC(N)COc1ccccc1] | 0.7151 and 1.122
c1cc2c(s1)CCNC2 [Prestw-Frag-1694, C1Cc2sccc2CN1] | 1.028 and 1.127
Clc1cccc(CN2CCNCC2)c1 [Prestw-Frag-1700, Clc1cccc(CN2CCNCC2)c1] | 1.014 and 1.092
Clc1ccc(-c2cncnc2)cc1 [Prestw-Frag-1704, Clc1ccc(cc1)-c1cncnc1] | 0.9459 and 1.223
CCCC(=O)Nc1ccc(O)c(C(C)=O)c1 [Prestw-Frag-1716, CCCC(=O)Nc1ccc(O)c(c1)C(C)=O] | 0.8359
CCCC(=O)Nc1cccc(C(C)=O)c1 [Prestw-Frag-1717, CCCC(=O)Nc1cccc(c1)C(C)=O] | 0.9496 and 0.8871
c1ccc2c(c1)CNc1ccccc1C2 [Prestw-Frag-1722, C1Nc2ccccc2Cc2ccccc12] | 1.196 and 1.047
COc1cc(C(N)=O)cc(OC)c1OC [Prestw-Frag-1731, COc1cc(cc(OC)c1OC)C(N)=O] | 0.8442
CCN(CC)CCOC(=O)c1ccccc1 [Prestw-Frag-1735, CCN(CC)CCOC(=O)c1ccccc1] | 0.9109 and 1.027
O=C1CCOc2ccccc21 [Prestw-Frag-1740, O=C1CCOc2ccccc12] | 0.9806
Clc1ccc(C(c2ccccc2)N2CCNCC2)cc1 (stereo not shown) [Prestw-Frag-1741, Clc1ccc(cc1)C(N1CCNCC1)c1ccccc1] | 1.086
CC(=O)NCc1cccnc1 [Prestw-Frag-1745, CC(=O)NCc1cccnc1] | 0.9231 and 1.026
O=C(NCc1cccnc1)c1ccc(O)cc1 [Prestw-Frag-1747, Oc1ccc(cc1)C(=O)NCc1cccnc1] | 0.7115 and 0.9722
CC(=O)Nc1ncc([N+](=O)[O-])s1 [Prestw-Frag-1750, CC(=O)Nc1ncc(s1)[N+]([O-])=O] | 1.04 and 0.8827
O=C(O)CCCc1ccc(-c2ccccc2)cc1 [Prestw-Frag-1767, OC(=O)CCCc1ccc(cc1)-c1ccccc1] | 0.6264
Fc1cccc(F)c1N1CCNCC1 [Prestw-Frag-1806, Fc1cccc(F)c1N1CCNCC1] | 0.9867 and 1.428
COc1ccc(OCC(N)=O)cc1 [Prestw-Frag-1812, COc1ccc(OCC(N)=O)cc1] | 0.9996 and 1.207
c1ccc(C(c2ccccc2)N2CCCNCC2)cc1 [Prestw-Frag-1817, C1CNCCN(C1)C(c1ccccc1)c1ccccc1] | 0.7059 and 1.011
NC(=O)COc1ccc(Cl)cc1 [Prestw-Frag-1833, NC(=O)COc1ccc(Cl)cc1] | 1.468 and 0.8655
Cc1ccccc1NC(=O)C(C)N (stereo not shown) [Prestw-Frag-1856, CC(N)C(=O)Nc1ccccc1C] | 1.062 and 1.114
CS(=O)(=O)Nc1ccccc1Oc1ccccc1 [Prestw-Frag-1861, CS(=O)(=O)Nc1ccccc1Oc1ccccc1] | 1.046 and 0.7818
COC(=O)C(O)(c1ccccc1)C1CCCCC1 (stereo not shown) [Prestw-Frag-1867, COC(=O)C(O)(C1CCCCC1)c1ccccc1] | 1.91 and 1.155
